Measurements reported in patent US6168934A, “Oligosaccharide enzyme substrates and inhibitors: methods and compositions” (The Scripps Research Institute, priority 1998, dated 2001).

Key:
[1] = molecular target: β-Glucosidase (Sweet Almond); experiment: Glycosidase inhibition, β-glucosidase (SA); assay type: biochemical; details: p-nitrophenyl β-D-glucoside, PIPES-NaOAc buffer pH 6.5
Description: (§1) Materials: All of the buffers, enzymes, and substrates were purchased from Sigma and used as received. These included piperazine-N,N'-bis (2-ethanesulfonic acid) (PIPES), sodium acetate (NaOAc), ethylenediaminetetraacetic acid (EDTA), β-D-glucosidase (from sweet almond), p-nitrophenyl β-D-glucoside, p-nitrophenyl α-D-glucosidase, p-nitrophenyl α-D-glucoside, β-N-acetyl-D-glucosaminedase, p-nitrophenyl β-N-acetyl-D-glucosaminide, α-D-mannosidase and p-nitrophenyl α-D-mannoside.
(§2) (b) PIPES-NaOAc buffer (0.01 M PIPES, 0.2 M NaOAc and 0.01 mM EDTA, pH 6.5). This buffer was prepared according to the literature procedure [Dale et al., Biochemistry, 24:3530 (1985)].
(c) β-D-Glucosidase: The stock enzyme solution was prepared by dissolving 15 mg of solid protein (4 units/mg) in 1 mL PIPES-NaOAc buffer solution. This stock enzyme solution was diluted 5-fold for the enzymatic assay.
(§3) (g) Substrate solutions: all substrates were dissolved in the corresponding buffer solution for enzymatic assay.
(§4) For each inhibitor, five inhibitor concentrations, ranging from zero to three times Ki, were generally used to determine the Ki value. […] The amount of enzyme added in each assay was adjusted so that less than 10 percent of the substrate, with its lowest substrate concentration, would be consumed within 45 seconds. Since all of the substrates have p-nitrophenol as leaving group, the assays were monitored at 400 nanometers (nm), where the molecular extinction coefficient, ε, was calibrated to be 3204.5 M^-1 cm^-1 at pH 6.5. The following illustrates the detailed procedure.
(§5) To a 1 mL disposable cuvette were added 950 microliters (μL) of the NaOAc-PIPES buffer solution, 20 μL of the inhibitor solution and 20 μL of the p-nitrophenyl β-D-glucoside solution (100 mM in PIPES-NaOAc buffer, pH 6.5). The solution was well mixed and 20 μL of the β-D-glucosidase solution were injected into the cuvette to start the reaction. The reaction was monitored at 400 nm on a Beckman DU-70 photospectrometer for 45 seconds and the initial hydrolysis rate was calculated. […]

[2] = molecular target: α-Glucosidase (Brewer's Yeast); experiment: Glycosidase inhibition, α-glucosidase (BY); assay type: biochemical; details: p-nitrophenyl α-D-glucoside, PIPES-NaOAc buffer pH 6.5
Description: as §1, §2
(d) α-D-Glucosidase: 1.5 mg of solid protein (70 units/mg) were dissolved in 1 mL PIPES-NaOAc buffer solution and used for assays without further dilution.
as §3, §4
as §5, with “calculated. The same procedure was repeated with five other substrate concentrations.” for “calculated.”

[3] = molecular target: T1, fucosyl α1,3/1,4 transferase (FucT; EC 2.4.1.65), recombinant (Homo sapiens, UniProt P21217); experiment: Fucosyltransferase inhibition studies (IC50); assay type: biochemical; details: 2 mM N-acetyllactosamine; for inhibitory effect: up to concentrations of 50 mg/mL
T1 construct: gift of Dr. J. B. Lowe, University of Michigan
T1 sequence (P21217 1-361): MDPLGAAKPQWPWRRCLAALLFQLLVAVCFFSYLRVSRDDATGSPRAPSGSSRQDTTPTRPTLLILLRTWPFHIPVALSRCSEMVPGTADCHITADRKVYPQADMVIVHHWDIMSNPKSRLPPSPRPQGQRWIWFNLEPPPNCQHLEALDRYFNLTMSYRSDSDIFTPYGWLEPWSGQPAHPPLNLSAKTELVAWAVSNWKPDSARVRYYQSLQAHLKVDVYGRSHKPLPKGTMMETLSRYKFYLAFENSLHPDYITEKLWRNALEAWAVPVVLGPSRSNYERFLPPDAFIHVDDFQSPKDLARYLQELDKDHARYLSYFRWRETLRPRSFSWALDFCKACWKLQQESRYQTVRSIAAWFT
Experimental: For other studies, such as those using a recombinant fucosylα1,3/4transferase (EC 2.4.1.65) whose results are shown in Table 1a, a stock mixture containing 0.25 mM ^14 C-GDP-fucose (5000 cpm/μL), 6.25 mM ATP, 25 mM MnCl2 are 62.5 mM cacodylate buffer, pH 6.2, was admixed fresh on the day of use, and stored on ice. To that solution, Fuc T was added immediately before use, and the reaction was initiated by the combination of 16 μL of that mixture with 4 μL of 100 mM acceptor substrate. The resulting admixture was then incubated at 37° C. for 30-240 minutes, depending upon the acceptor substrate (reactant compound) under study.
In this equation, m=slope and b=y-intercept.
Percent inhibition=m([inhibitor])+b equation 2

[4] = system: Nc1ccn([C@@H]2O[C@H](COP(=O)(O)OP(=O)(O)OP(=O)(O)O)[C@@H](O)[C@H]2O)c(=O)n1; experiment: purified protein, by the assay type; details: other: pH 9.0, 37° C.
Experimental: (§10) The activity of the native or the modified CMP-NeuAc synthetase was assayed using a thiobarbituric acid method described by Vann et al., J. Biol. Chem., 262:17556 (1987). […] After the mixture was incubated at 37° C. for 30 minutes, 50 mL of 1.6 M NaBH4 was added to destroy excess NeuAc, and the mixture was heated at room temperature for an additional 15 minutes. The mixture was then put in the ice bath and 50 mL of H3 PO4 were added to destroy NaBH4.
(§11) The resulting mixture was kept at zero degrees C for five minutes then incubated at 37° C. for 10 minutes to cleave the phosphoester bond of the formed CMP-NeuAc. The free NeuAc was oxidized with 50 mL of 0.2 M NaIO4 at room temperature for 10 minutes, and 400 mL of 4 percent NaAsO2 in 0.5 N HCl were added. […] After the solution was cooled, 1 mL of the solution was taken out and mixed with 1 mL of cyclohexanone. That mixture was shaken and centrifuged, and the upper layer was taken for measurement at 549 nm (e=4.11 mM^-1 cm^-1).
(§12) where A is [CTP], B is [NeuAc], Ka and Kb are the Michaelis constants for CTP and NeuAc, respectively, and Kia is the dissociation constant (or inhibition constant) for CTP.

[5] = molecular target: β-galactosidase (EC 3.2.1.23 from E. coli) (Escherichia coli, UniProt P00722); experiment: Inhibition of β-galactosidase hydrolysis of p-nitrophenyl β-galactoside; assay type: biochemical; details: p-nitrophenyl β-galactoside hydrolysed at the same rate with and without azasugar; concentration not given
Chain of β-galactosidase (EC 3.2.1.23 from E. coli) (P00722 2-1024): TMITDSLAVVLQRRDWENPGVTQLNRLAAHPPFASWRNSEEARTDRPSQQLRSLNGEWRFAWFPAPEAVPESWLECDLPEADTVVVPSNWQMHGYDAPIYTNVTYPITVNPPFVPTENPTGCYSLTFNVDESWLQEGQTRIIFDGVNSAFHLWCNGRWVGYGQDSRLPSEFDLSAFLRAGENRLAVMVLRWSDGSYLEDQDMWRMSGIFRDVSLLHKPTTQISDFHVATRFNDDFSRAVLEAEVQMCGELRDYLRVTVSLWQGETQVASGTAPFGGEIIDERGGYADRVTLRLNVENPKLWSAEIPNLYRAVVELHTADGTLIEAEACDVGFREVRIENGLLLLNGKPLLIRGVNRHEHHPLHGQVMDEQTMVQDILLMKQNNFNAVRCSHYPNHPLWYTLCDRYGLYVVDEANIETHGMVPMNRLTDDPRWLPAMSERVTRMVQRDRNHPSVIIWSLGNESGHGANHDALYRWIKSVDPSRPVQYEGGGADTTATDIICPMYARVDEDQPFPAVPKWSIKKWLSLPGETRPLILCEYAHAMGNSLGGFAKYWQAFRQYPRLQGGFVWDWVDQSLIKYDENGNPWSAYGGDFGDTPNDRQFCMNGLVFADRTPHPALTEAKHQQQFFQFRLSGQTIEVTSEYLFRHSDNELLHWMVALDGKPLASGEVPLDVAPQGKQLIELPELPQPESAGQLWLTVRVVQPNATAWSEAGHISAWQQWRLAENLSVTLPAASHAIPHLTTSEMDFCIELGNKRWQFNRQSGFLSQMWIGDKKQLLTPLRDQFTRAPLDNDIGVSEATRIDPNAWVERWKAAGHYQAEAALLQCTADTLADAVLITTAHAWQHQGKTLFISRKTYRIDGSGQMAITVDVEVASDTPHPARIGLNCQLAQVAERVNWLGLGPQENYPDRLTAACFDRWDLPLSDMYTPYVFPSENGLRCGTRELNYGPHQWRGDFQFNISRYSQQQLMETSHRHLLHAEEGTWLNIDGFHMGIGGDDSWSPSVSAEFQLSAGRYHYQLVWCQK
Description: Not all of the monosaccharide acceptors of the present invention are suitable substrates for β-galactosidase. For example, when Compound 3 or 4 from Table 2 are used as a substrate, no product was obtained.

[6] = system: Nc1ccn([C@@H]2O[C@H](COP(=O)(O)OP(=O)(O)OP(=O)(O)O)[C@@H](O)[C@H]2O)c(=O)n1; experiment: Kinetic studies of modified (tagged) CMP-NeuAc synthetase; assay type: biochemical, E. coli; details: other: pH 9.0, 37° C.
Experimental: (§6) The construction of plasmid CMPSIL-1, which contains the modified CMP-NeuAc synthetase gene (Example 2), was accomplished by the method of Ichikawa et al., J. Am. Chem. Soc., 113:4698 (1991). The CMP-NeuAc synthetase gene was fused with the decapeptide tag sequence Tyr-Pre-[…](SEQ ID NO:3) at the C-terminus, cloned into a lambda ZAP™ vector at EcoRI and XbaI sites and overexpressed in E. coli Sure strain.
(§7) The activity of the native or the modified CMP-NeuAc synthetase was assayed using a thiobarbituric acid method described by Vann et al., J. Biol. Chem., 262:17556 (1987). Briefly, the enzyme was added to a […] buffer containing 5.5 mM CTP, 2.8 mM N-acetylneuraminic acid, 0.2 M Tris, 20 mM MgCl2 and 0.2 mM DTT, pH 9.0, to form a mixture. After the mixture was incubated at 37° C. for 30 minutes, 50 mL of 1.6 M NaBH4 was added to destroy excess NeuAc, and the mixture was heated at room temperature for an additional 15 minutes. The mixture was then put in the ice bath and 50 mL of H3 PO4 were added to destroy NaBH4.
(§8) The resulting mixture was kept at zero degrees C for five minutes then incubated at 37° C. for 10 minutes to cleave the phosphoester bond of the formed CMP-NeuAc. The free NeuAc was oxidized with 50 mL of 0.2 M NaIO4 at room temperature for 10 minutes, and 400 mL of 4 percent NaAsO2 in 0.5 N HCl were added. The solution mixture was the transferred to a test tube containing 1 mL of 0.6 percent thiobarbituric acid in 0.5 M Na2 SO4, and heated in boiled water for 15 minutes. After the solution was cooled, 1 mL of the solution was taken out and mixed with 1 mL of cyclohexanone. That mixture was shaken and centrifuged, and the upper layer was taken for measurement at 549 nm (e=4.11 mM^-1 cm^-1).
(§9) Initial velocities were measured at various concentrations of CTP (1.25-5 mM) and NeuAc (2-8 mM) for kinetic studies. The data were fitted into the sequential bi-bi substrate rate equation 3, shown below, to derive the Michaelis constants and maximum velocity (V) using a Sigma plot program from Sigma Co. [formula] […]

[7] = system: CC(=O)N[C@H]1[C@H]([C@H](O)[C@H](O)CO)OC(O)(C(=O)O)C[C@@H]1O; experiment: as above; assay type: biochemical, E. coli; details: other: pH 9.0, 37° C.
Experimental: as §6, §7, §8, §9

[8] = molecular target: E. coli CMP-sialic acid synthetase (CMP-NeuAc synthetase, EC 2.7.7.43), native enzyme (Escherichia coli O18:K1:H7, UniProt P13266); experiment: Kinetic studies of native CMP-NeuAc synthetase; details: pH 9.0, 37° C.
Chain of E. coli CMP-sialic acid synthetase (CMP-NeuAc synthetase, EC 2.7.7.43), native enzyme (P13266 whole entry): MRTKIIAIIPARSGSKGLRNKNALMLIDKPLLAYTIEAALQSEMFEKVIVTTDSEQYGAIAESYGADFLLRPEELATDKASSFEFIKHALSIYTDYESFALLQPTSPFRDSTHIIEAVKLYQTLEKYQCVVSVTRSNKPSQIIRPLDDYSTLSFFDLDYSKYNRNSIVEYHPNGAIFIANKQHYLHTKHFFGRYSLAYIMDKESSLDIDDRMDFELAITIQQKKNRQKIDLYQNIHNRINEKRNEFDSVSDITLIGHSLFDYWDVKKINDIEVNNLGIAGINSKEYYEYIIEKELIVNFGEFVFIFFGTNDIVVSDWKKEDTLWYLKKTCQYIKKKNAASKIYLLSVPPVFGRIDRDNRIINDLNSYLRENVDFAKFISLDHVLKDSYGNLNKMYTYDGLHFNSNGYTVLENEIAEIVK
Experimental: as §10, §11, §12

`C[C@@H]1[C@@H](O)[C@H](O)[C@@H](O)C[N@+]1(C)[O-]` [Compound 118, (1,2R)-dimethyl-(3R,4R,5S)-trihydroxypiperidine oxide] was tested, and the Ki [1] was 1.49 mM and the Ki [2] was 6.95 mM.
In the case of `OC[C@H]1O[C@@H](O[C@H]2[C@H](O)C=CO[C@@H]2CO)[C@H](O)[C@@H](O)[C@H]1O` [Compound 8, P-D-Galactopyranosyl-(1,4)-D-glucal], the inhibitory effect [3] is reported as “did not exhibit any inhibitory effect”.
With `OC[C@H]1NC[C@H](O)[C@@H](O)[C@@H]1O[C@@H]1O[C@H](CO)[C@H](O)[C@H](O)[C@H]1O` [Compound 10a, 6-D-Galactopyranosyl-(1,4) -deoxynojirimycin] the IC50 ([3]; Example 8) was roughly 40 mM and the IC50 ([3]; Table 1a, 14C-GDP-fucose, pH 6.2, 37° C., IC50 extrapolated from linear fit) was 40 mM.
`C=CCO[C@@H]1O[C@H](CO)[C@@H](O[C@@H]2O[C@H](CO)[C@H](O)[C@H](O)[C@H]2O)C[C@H]1NC(C)=O` [Compound 2i, Allyl β-D-galactopyranosyl-(1,4)-2-acetamido-2,3-dideoxy-β-D-glucopyranoside] was tested, and the inhibitory effect [3] was “did not exhibit any inhibitory effect”.
“E. coli CMP-sialic acid synthetase (CMP-NeuAc synthetase, EC 2.7.7.43), native enzyme (Escherichia coli RS218)” showed a Km [4] of 0.31 mM.
With `C[C@H]1NC[C@H](O)[C@@H](O)[C@@H]1O` [Compound 4] the “inhibition of β-galactosidase” value [5] was “Neither azasugar was an inhibitor”.
Compound `C[C@@H]1[C@@H](O)[C@H](O)[C@@H](O)CN1C` [Compound 117, (1,2R)-dimethyl-(3R,4R,5S)-trihydroxypiperidine] has a Ki [1] of 0.14 mM and a Ki [2] of 1.78 mM.
With `OC[C@H]1NC[C@H](O)[C@@H](O)[C@@H]1O` [Compound 3] the “inhibition of β-galactosidase” value [5] was “Neither azasugar was an inhibitor”.
“E. coli CMP-sialic acid synthetase (CMP-NeuAc synthetase, EC 2.7.7.43), modified (tagged) enzyme with C-terminal decapeptide tag, SEQ ID NO:3 (Escherichia coli RS218)” showed a Km [6] of 1.99 mM, a Km [7] of 4.8 mM and a kcat [7] of 1.9 s⁻¹.
`CC(=O)N[C@H]1[C@H]([C@H](O)[C@H](O)CO)OC(O)(C(=O)O)C[C@@H]1O` (stereo partly drawn) [NeuAc, N-acetylneuraminic acid] gave a Km ([8]; read-out: Km for NeuAc) of 4 mM and a kcat ([8]; substrates NeuAc and CTP) of 1.8 s⁻¹.
`C[C@H]1NC[C@H](O)[C@@H](O)[C@@H]1O` [Compound 103c, (2R)-methyl-(3R,4R,5S)-trihydroxypiperidine] was tested, and the Ki [1] was 0.78 mM and the Ki [2] was 1.56 mM.
